How the values were obtained:
CA1 pyramidal neurons = assay: IPSC recordings in CA1 pyramidal cells of hippocampal slices; format: cell-based, mouse; conditions: 0.25 mM in recording ACSF; for spontaneous IPSCs (sIPSCs, mIPSCs): Evf2TS/TS and wild-type mice; for evoked IPSCs: wild-type and Evf2TS/TS mice
Experimental: Transverse hippocampal slices ([…]) were prepared from 3-5-month-old Evf2^TS/TS mice. Slices were cut in ice-cold (˜4° C.) oxygenated ACSF and then were allowed to recover for 1-2 h before being transferred to the recording chamber where they were continuously superfused with solution heated to 32-34° C. and saturated with 95% O2/5% CO2. The standard extracellular solution contained 124 mM NaCl, 3 mM KCl, 1.25 mM KH2PO4, 2.0 mM CaCl2, 1.3 mM MgCl2, 26 mM NaHCO3 and 10 mM glucose. The concentration of MgCl2 was raised to 2.0 mM and that of CaCl2 decreased to 1.4 mM in the slicing solution. […].
Somatic whole-cell recordings were obtained from CA1 pyramidal neurons under visual guidance using infrared differential interference contrast microscopy. Patch pipettes were pulled from borosilicate glass capillary tubing (A-M Systems). Internal solution for the patch pipettes contained 120 mM cesium methane sulphonate, 10 mM CsCl, 5 mM NaCl, 10 mM HEPES, 10 mM EGTA, 5 mM TEA-Cl, 4 mM Mg-ATP, 0.3 mM GTP and 5 mM QX-314 (pH 7.3-7.4), adjusted with CsOH, osmolarity 290±10 mOsm.
Voltage-clamp recordings were performed using Axopatch-200B (Axon Instruments). In all of our recordings, series resistance was <22 MΩ and was compensated at 80%. The recorded signal was low-pass filtered at 5 kHz and digitized at 10 kHz with a PCI-MIO-16E-4 board (National Instruments). All data were stored on a PC computer with custom software using C++ Builder 5.0 (Borland) and a NI DAQ 6.5 driver (National Instruments).
Evoked IPSCs were elicited at 0.1-0.07 Hz with a bipolar Pt/Ir electrode (2×25 μn) positioned on the stratum radiatum within 150 μm of the cell being recorded (Schaffer collateral-commisural fibers location site). At the beginning of each experiment, stimulus intensity was adjusted to evoke […] with amplitude of 0.4-0.2 nA. Evoked IPSCs were recorded at holding potential from −70 mV to +20 mV with 10-mV voltage steps after blocking EPSCs with a solution containing CNQX and D-AP5.
Spontaneous IPSCs were analyzed using MiniAnalysis 6.0.3 software (Synaptosoft). All events were manually selected on the basis of their kinetics. Between 250 and 450 individual events were analyzed for each cell. Post-recording analyses of evoked IPSPs were carried out using Clampfit 10 (Axon Instruments). All statistical values were evaluated with Origin 8 (MicroCal Software). Values are presented as mean±s.e.m. Statistical differences were established at P<0.05 using the Student t test, unless otherwise indicated.

[1] = administered 3 hours prior to cocaine; cited from earlier work

Row | Compound | spontaneous IPSCs (sIPSCs, mIPSCs) (CA1 pyramidal neurons) | spontaneous IPSCs (sIPSCs, mIPSCs) (CA1 pyramidal neurons; listed as picrotoxin) | evoked IPSCs (CA1 pyramidal neurons) | evoked IPSCs (CA1 pyramidal neurons; listed as picrotoxin) | locomotor response to cocaine [1]
1 | Picrotoxin | blocked all IPSC activity | abolished | blocked evoked IPSCs | abolished | 
2 | C=CC(N)CCC(=O)O (centres unmarked) [GVG] |  |  |  |  | can attenuate locomotor response

Reference: patent publication US9491935B2, “Animal models of neurological disorders” (Ann & Robert H. Lurie Children's Hospital of Chicago, priority 2009, dated 2016)
